According to ChEMBL document CHEMBL3124746, “Triazine Analogues as NS5B Inhibitors for the Treatment of HCV” (ACS Med Chem Lett, 2014):

Tested on: Hepatitis C virus
Assay: Antiviral activity against HCV infected in human HuH7 cells assessed as inhibition of viral replication after 2 days by luciferase reporter gene assay
Assay type: functional, organism-based, Hepacivirus hominis
Details: Huh-7, 48 h

Row | EC50 | SMILES
1 | 0.16 nM | COC(=O)[C@@H](CCNC(=O)C(=O)Nc1cccc(OC(F)(F)F)c1)NC(=O)c1ccc(Nc2nc(NC3(c4ccc(Cl)cc4)CC3)nc(OCC(F)(F)F)n2)cc1
2 | 0.69 nM | CNC(=O)C(=O)NC[C@@H](NC(=O)c1ccc(Nc2nc(NC3(c4ccc(Cl)cc4)CC3)nc(OCC(F)(F)F)n2)cc1)C(=O)O
